The source of these data is US4337256A, “1-Phenyl isoquinoline-5-acetic acid compounds and analgesic compositions thereof” (priority 1978, dated 1982).

One data set has as its system platelet aggregation. As to the kind of experiment: Activity of inhibiting platelet aggregation (collagen-induced). To be noted: Cavia porcellus, 2 min, read-out: ED50 (inhibition of platelet aggregation). The data set is classed as cell-based, male Hartley guinea pig. The protocol:
The citrated blood was centrifuged at a speed of 1,000 rpm for 10 minutes. The supernatant was collected to obtain a platelet-rich plasma. Separately, it was contrifuged at a speed of 3,000 rpm for 15 minutes, and the supernatant was collected to obtain a platelet-poor plasma. […] The platelet-rich plasma (250 μl) was placed in a cuvet, and preliminarily heated at 37° C. for 2 minutes, and then while stirring at a speed of 1,000 rpm, 31 μl of a test solution was added. The mixture was incubated for 2 minutes with stirring, and then 31 μl of a collagen solution was added, and the maximum aggregation rate of platelet was measured. The amount of the collagen applied was adjusted to the minimum effective amount which induced irreversible platelet aggregation. This amount was determined for each experiment. The percent inhibition of the test solution-applied group was determined in accordance with the following equation. From the percent inhibition, the ED50 value of the test compounds was calculated in accordance with the Litchfield-Wilcoxon method. Each test compound was dissolved in distilled water as a sodium salt.

The test system of a further data set is digestive organs. To be noted: known agents, statement in words; cited from earlier work.
A further data set can be described thus: Toxicity test (LD50). To be noted: mouse, in vivo; oral, observed for 1 week; parentheses show 95% confidence limits. How it is done: Each of the test compounds was suspended in a physiological saline solution having dissolved therein 2% of Tween 80, and orally administered through a tube to groups of ddY mice (male: 19 to 22 g) each group consisting of 6 mice. The mice were then observed for 1 week. The LD50 values were calculated from the lethality in accordance with the method of Litchfield-Wilcoxon.

For data set [1], the target named is T1, microsomes of bovine seminal vesicle (a prostaglandin synthesizing enzyme) (Bos taurus, UniProt O62664).
T1 construct: a microsome fraction prepared from bovine seminal vesicle; from tissue; host or cells: bovine seminal vesicle, lyophilized microsome fraction
T1 sequence (O62664 25-600): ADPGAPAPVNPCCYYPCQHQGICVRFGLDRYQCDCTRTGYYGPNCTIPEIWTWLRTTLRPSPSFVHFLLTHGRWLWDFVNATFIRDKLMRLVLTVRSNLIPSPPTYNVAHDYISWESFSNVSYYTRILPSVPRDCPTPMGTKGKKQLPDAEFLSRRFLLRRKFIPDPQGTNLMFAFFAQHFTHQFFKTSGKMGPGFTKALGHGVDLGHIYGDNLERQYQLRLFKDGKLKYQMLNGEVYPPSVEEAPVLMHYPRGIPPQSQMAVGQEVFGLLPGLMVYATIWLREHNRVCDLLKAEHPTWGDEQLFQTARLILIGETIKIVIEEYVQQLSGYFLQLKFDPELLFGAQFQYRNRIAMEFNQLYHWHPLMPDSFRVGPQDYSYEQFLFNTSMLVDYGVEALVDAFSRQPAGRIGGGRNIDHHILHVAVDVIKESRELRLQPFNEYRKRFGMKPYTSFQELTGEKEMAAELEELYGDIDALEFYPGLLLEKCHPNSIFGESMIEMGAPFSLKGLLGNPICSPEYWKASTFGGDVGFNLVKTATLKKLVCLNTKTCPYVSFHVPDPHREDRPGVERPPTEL
In words: Activity of inhibiting prostaglandin synthesis (prostaglandin E2 formed). To be noted: 37° C., 5 minutes, pH 8.0, 50 μM arachidonic acid; dissolved as a sodium salt; read-out: ED50 (inhibition of prostaglandin synthesis). The data set is classed as biochemical. How it is done:
The activity of inhibiting prostaglandin synthesis was measured by adding a test compound, i.e. a substance having the activity of inhibiting prostaglandin synthesis, to a prostaglandin synthesizing reaction system shown below, and quantitatively determining to what extent synthesis of prostaglandin was inhibited.
100 mM tris-HCl buffer (pH=8.0),
0.0125 μCi/ml (14c)-arachidonic acid,
1 mg/ml, as protein, of microsomes of bovine seminal vesicle (a prostaglandin synthesizing enzyme obtained by lyophylizing a microsome fraction prepared from bovine seminal vesicle).
The test compound was added to the reaction system to adjust the total amount to 1 ml. As a control, 1 ml of the above reaction system without addition of the test compound was provided. Each of these was incubated with shaking at 37° C. for 5 minutes, and 0.5 ml of 0.3 M citric acid was added to stop the reaction. The prostaglandin formed was extracted with ethyl acetate, fractionated by thin-layer chromatography. The radioactivity of each fraction was measured by a liquid scintillation counter. The amount of prostaglandin E2 formed in the group to which the test compound had been applied was measured, and the percent inhibition was calculated in accordance with the following equation. From the percent inhibition, the ED50 value of the test compounds was calculated in accordance with the Litchfield-Wilcoxon method. […]

Data set [2] has as its system writhings (acetic acid) in the mice. As to the kind of experiment: Analgesic activity: acetic acid writhing test. It is filed as in vivo, male mice (ddY). Conditions: Mus musculus, po; p.o. 1 h before 0.6% acetic acid i.p.; parentheses show 95% confidence limits; read-out: ED50 (analgesic, writhing inhibition). How it is done:
Male mice (ddY) weighing 18 to 22 g were used in groups each consisting of 10 mice. Each of the compounds was suspended in an aqueous solution of 0.5% of carboxymethyl cellulose and 2.0% of Tween 80, and administered orally through a tube. After one hour from the administration, 0.6% acetic acid was administered intraperitoneally in an amount of 0.1 ml per 10 g of body weight, and the number of writhings which occurred in the mice during a period of 20 minutes after the administration was measured. The percent inhibition was calculated from the following equation, and the ED50 values of the test compounds were calculated from the percent inhibition in accordance with the method of Litchfield-Wilcoxon.

The subject of data set [3] is left hind paw edema (carrageenin). As to the kind of experiment: Anti-inflammatory activity: carrageenin-induced left hind paw edema. The data set is classed as in vivo, male Wistar rats. To be noted: Rattus norvegicus, po, p.o., 1 h before carrageenin, measured 3 h later, read-out: Percent inhibition (edema). The protocol: Male Wistar rats weighing 120 to 150 g which had been fasted for 24 hours were used in groups each consisting of 5 rats. In each group, the volumes of the left hind paw were measured by a volume differential meter (made by Ugo Basile Company), and each of the test compounds was suspended in an aqueous solution of 0.5% of carboxymethyl cellulose and 2.0% of Tween 80, and administered orally through a tube. After one hour from the administration, 0.1 ml of a 1% suspension of carrageenin in distilled water was subcutaneously injected into the plantar tissues of the left hind paw. Three hours later, the volumes of the left hind paw were again measured. The increase in volume of the left hind paw of each rat in each group (the volume of edema) was measured.

In the next data set the test system is stomach mucosal membrane. As to the kind of experiment: Ulcerogenic activity: gastric ulceration. The data set is classed as in vivo, male Wistar rats. Conditions: p.o., 4 h. How it is done:
Each of the test compounds was orally administered by the same way as in the test on anti-inflammatory activity to male Wistar rats weighing 120 to 150 g which had been fasted for 24 hours. Four hours later, they were killed with ether.

The conditions of data set [4]: reported in J. Med. Chem. 1978, 21, 582-585; cited from earlier work.

Where two headings read alike, the source gives them in different places.

Turning to `CC(=O)Oc1ccccc1C(=O)O` [Aspirin, reference compound], the IC50 in the data set on platelet aggregation (Platelet) was determined as 15.8 µM. Further, the “troubles in the digestive organs” value in the data set on digestive organs is reported as “fairly heavy troubles in the digestive organs”.
As to `O=C(O)Cc1cccc2c(-c3ccc(Cl)cc3)nccc12` [A, 1-(4-chlorophenyl)isoquinoline-5-acetic acid], the 50% lethal dose (LD50) at 168 h in “Toxicity test (LD50)” was found to be 182 mg/kg. Besides, the IC50 in data set [1] is 0.82 µM; with platelet aggregation (collagen-induced, platelet-rich plasma, dissolved as a sodium salt, parentheses show 95% confidence limits), 1.9 µM. Also, the median effective dose (ED50) in data set [2] is 1.4 mg/kg. Moreover, in data set [3] (0.3 mg/kg), the inhibition in vivo at 0.3 mg/kg was determined as 22.7 ± 6.1%. For the same compound, the inhibition in vivo at 1 mg/kg in data set [3] (1 mg/kg) worked out at 27.3 ± 7.4%. Also, the inhibition in vivo at 3 mg/kg in data set [3] (3 mg/kg) was 44.6 ± 5.8%. Also, the results for the “Gastric ulceration: bleeding at the mucosal membrane” value in the data set with stomach mucosal membrane (10 mg/kg) and with stomach mucosal membrane (30 mg/kg) were 0/10 and 0/5, respectively. The “Gastric ulceration: damage beneath the mucosal membrane” value in the data set on stomach mucosal membrane (10 mg/kg) is 0/10; in the data set on stomach mucosal membrane (30 mg/kg), 0/5.
`NC(=O)Cc1cc2ccccc2c(-c2ccc(Cl)cc2)n1` [1-(4-chlorophenyl)-3-carbamoylmethyl isoquinoline]: the “anti-inflammatory and analgesic activities” value in data set [4] was “has anti-inflammatory and analgesic activities”.
For `CCCCC1C(=O)N(c2ccccc2)N(c2ccccc2)C1=O` [Phenylbutazone, reference compound], the IC50 in data set [1] came to 26.1 µM. Moreover, in data set [2], the ED50 was determined as 109 mg/kg. The “troubles in the digestive organs” value with digestive organs was “fairly heavy troubles in the digestive organs”.
